This experiment concerns the target LRRK2 (Homo sapiens, UniProt Q5S007). The experiment can be described thus: LRRK2-LRRK2 G2019S-Assay (LanthaScreen Eu Kinase Binding Assay). The following applies: 5 nM LRRK2, 10 nM tracer 236, 2 nM EU-Anti-GST antibody, 1 h at RT; read-out: LRRK2 Activities: IC50. As to the method:
In the assay LanthaScreen™ Eu Kinase Binding Assay by Invitrogen Corporation (Carlsbad) the effect of invention of a compound on the phosphorylation is determined by measurement of fluorescence intensity emission ratio based on the binding and displacement of a proprietary, Alexa Fluor® 647-labeled, ATP-competitive kinase inhibitor scaffold (kinase tracer) to the kinase of interest. Binding of the tracer to the kinase is detected using a europium-labeled anti-tag antibody, which binds to the kinase of interest. Simultaneous binding of both the tracer and antibody to the kinase results in a high degree of FRET (fluorescence resonance energy transfer) from the europium (Eu) donor fluorophore to the Alexa Fluor® 647 acceptor fluorophore on the kinase tracer. Binding of an inhibitor to the kinase competes for binding with the tracer, resulting in a loss of FRET. The fluorescence intensity ratio is directly proportional to the amount of peptide phosphorylation.
To the wells of an 384 well small volume plate (Greiner, Frickenhausen) are added (i) the compound under test in 5% DMSO/distilled water (5 μl), (ii) 5 μl of the kinase antibody mixture resulting in a final concentration 5 nM LRRK2 or their mutants, 2 nM EU-Anti-GST antibody in 1× kinase buffer A. The reaction was started with addition of (iii) 5 μl resulting in a final concentration of 10 nM tracer 236. The assay plate was incubated at RT for 1 h and fluorescence intensity readings were collected using a TECAN M1000 at two wavelengths of λex 340/λem 615 nm and λex 340/λem 665 nm with a delay time of 100 μs and an integration time of 200 μs after 60 minutes. The emission ratio was calculated by division of the acceptor/tracer emission ([…]) by the antibody/donor emission ([…]). The inhibitor concentration was plotted versus the emission ratio to determine the IC50 using XLFit 5.0 (IDBS, Guildford) to fit to a sigmoidal dose response curve with a variable slope.

LRRK2, sequence (Q5S007 970-2527 limits assumed): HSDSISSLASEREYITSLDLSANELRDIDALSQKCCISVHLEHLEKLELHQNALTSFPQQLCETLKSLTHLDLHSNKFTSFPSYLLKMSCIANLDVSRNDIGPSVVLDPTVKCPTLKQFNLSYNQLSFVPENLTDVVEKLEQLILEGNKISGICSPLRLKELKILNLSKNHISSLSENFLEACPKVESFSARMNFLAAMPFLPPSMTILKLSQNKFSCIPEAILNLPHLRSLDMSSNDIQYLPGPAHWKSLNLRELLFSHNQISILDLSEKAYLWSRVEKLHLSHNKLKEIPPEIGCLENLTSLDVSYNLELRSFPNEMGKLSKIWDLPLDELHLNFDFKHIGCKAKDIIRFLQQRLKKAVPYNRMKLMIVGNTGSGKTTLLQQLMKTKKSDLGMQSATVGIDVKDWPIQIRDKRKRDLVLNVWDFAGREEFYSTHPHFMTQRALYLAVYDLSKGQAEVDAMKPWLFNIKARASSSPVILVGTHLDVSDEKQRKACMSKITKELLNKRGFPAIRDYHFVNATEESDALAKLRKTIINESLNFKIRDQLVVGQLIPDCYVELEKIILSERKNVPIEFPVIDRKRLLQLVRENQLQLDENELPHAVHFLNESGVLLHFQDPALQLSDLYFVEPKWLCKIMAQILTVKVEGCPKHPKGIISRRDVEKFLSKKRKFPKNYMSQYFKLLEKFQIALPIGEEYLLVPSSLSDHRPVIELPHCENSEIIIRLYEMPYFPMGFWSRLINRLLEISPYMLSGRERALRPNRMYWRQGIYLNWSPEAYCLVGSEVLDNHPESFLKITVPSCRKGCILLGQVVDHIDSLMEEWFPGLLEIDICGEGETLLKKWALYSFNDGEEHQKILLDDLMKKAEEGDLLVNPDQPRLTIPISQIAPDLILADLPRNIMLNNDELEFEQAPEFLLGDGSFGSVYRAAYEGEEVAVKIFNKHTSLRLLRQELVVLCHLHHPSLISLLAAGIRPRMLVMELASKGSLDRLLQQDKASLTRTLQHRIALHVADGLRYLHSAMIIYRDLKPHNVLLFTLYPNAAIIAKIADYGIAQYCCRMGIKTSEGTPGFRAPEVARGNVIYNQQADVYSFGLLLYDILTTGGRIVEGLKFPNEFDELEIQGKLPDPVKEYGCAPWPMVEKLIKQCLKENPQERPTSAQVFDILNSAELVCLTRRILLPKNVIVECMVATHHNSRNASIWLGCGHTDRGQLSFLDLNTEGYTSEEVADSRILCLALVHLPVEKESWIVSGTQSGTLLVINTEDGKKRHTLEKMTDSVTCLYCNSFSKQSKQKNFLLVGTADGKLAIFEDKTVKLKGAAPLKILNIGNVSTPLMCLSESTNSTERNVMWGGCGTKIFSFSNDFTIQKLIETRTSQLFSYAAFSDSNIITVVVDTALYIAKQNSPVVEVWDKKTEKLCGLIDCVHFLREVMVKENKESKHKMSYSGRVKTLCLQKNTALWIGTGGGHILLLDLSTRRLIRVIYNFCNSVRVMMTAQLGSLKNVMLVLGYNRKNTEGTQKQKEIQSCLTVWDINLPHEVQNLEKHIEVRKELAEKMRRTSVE

In the case of `Cc1nn(C2CCOCC2)cc1Nc1nc2ccc(S(C)(=O)=O)cc2c2cn[nH]c12` [Example 216, N-(3-methyl-1-(tetrahydro-2H-pyran-4-yl)-1H-pyrazol-4-yl)-8-(methylsulfonyl)-3H-pyrazolo[3,4-c]quinolin-4-amine], the IC50 is 10 to 100 nM. `COc1ccc2nc(Nc3cnn(C4CCN(C)CC4)c3)c3n[nH]cc3c2c1` [Example 111, 8-methoxy-N-(1-(1-methylpiperidin-4-yl)-1H-pyrazol-4-yl)-2H-pyrazolo[3,4-c]quinolin-4-amine]: the half-maximal inhibitory concentration (IC50) was in the range of 10 to 100 nM. Turning to `Fc1cc(Nc2nc3cccc(F)c3c3cn[nH]c23)ccc1N1CCOCC1` [Example 2, 9-fluoro-N-(3-fluoro-4-morpholinophenyl)-3H-pyrazolo[3,4-c]quinolin-4-amine], the IC50 fell in the range of 100 to 1000 nM. Turning to `CS(=O)(=O)c1ccc2nc(Nc3ccccc3O)c3n[nH]cc3c2c1` [Example 336, 2-((8-(methylsulfonyl)-2H-pyrazolo[3,4-c]quinolin-4-yl)amino)phenol], the IC50 was 100 to 1000 nM. On to `COc1cccc2nc(Nc3ccc4c(c3)COC4)c3[nH]ncc3c12` [Example 18, N-(1,3-dihydroisobenzofuran-5-yl)-9-methoxy-3H-pyrazolo[3,4-c]quinolin-4-amine], for which the IC50 is 10 to 100 nM. Then `COc1ccc2nc(Nc3cnn(C(C)(C)C(N)=O)c3)c3n[nH]cc3c2c1` [Example 164, 2-(4-((8-methoxy-2H-pyrazolo[3,4-c]quinolin-4-yl)amino)-1H-pyrazol-1-yl)-2-methylpropanamide], with 100 to 1000 nM; and `COCCn1cc(Nc2nc3cccc(OC)c3c3cn[nH]c23)c(C)n1` [Example 205, 9-methoxy-N-(1-(2-methoxyethyl)-3-methyl-1H-pyrazol-4-yl)-3H-pyrazolo[3,4-c]quinolin-4-amine], with 10 to 100 nM; and `COc1cc(N2CCOC2=O)ccc1Nc1nc2ccc(S(C)(=O)=O)cc2c2cn[nH]c12` [Example 240, 3-(3-methoxy-4-((8-(methylsulfonyl)-3H-pyrazolo[3,4-c]quinolin-4-yl)amino)phenyl)oxazolidin-2-one], with 100 to 1000 nM. Under `COc1cccc2nc(Nc3cn(C(C)C)nc3C)c3[nH]ncc3c12` [Example 222, N-(1-isopropyl-3-methyl-1H-pyrazol-4-yl)-9-methoxy-3H-pyrazolo[3,4-c]quinolin-4-amine] stands 10 to 100 nM. In the case of `COc1ccc2nc(Nc3cccc(C(C)(C)C#N)c3)c3n[nH]cc3c2c1` [Example 24, 2-(3-((8-methoxy-2H-pyrazolo[3,4-c]quinolin-4-yl)amino)phenyl)-2-methylpropanenitrile], the IC50 is 100 to 1000 nM. As for `COCCCn1ncc(Nc2nc3cccc(OC)c3c3cn[nH]c23)c1Cl` [Example 235, N-(5-chloro-1-(3-methoxypropyl)-1H-pyrazol-4-yl)-9-methoxy-3H-pyrazolo[3,4-c]quinolin-4-amine], the IC50 lay within 10 to 100 nM. With `COc1cccc2nc(Nc3cccc(C(C)(C)C#N)c3)c3[nH]ncc3c12` [Example 33, 2-(3-((9-methoxy-3H-pyrazolo[3,4-c]quinolin-4-yl)amino)phenyl)-2-methylpropanenitrile], the IC50 lay within 100 to 1000 nM. Regarding `Fc1cccc2nc(Nc3ccc(CN4CCOCC4)cc3)c3[nH]ncc3c12` [Example 30, 9-fluoro-N-(4-(morpholinomethyl)phenyl)-3H-pyrazolo[3,4-c]quinolin-4-amine], the IC50 lay in the range of 100 to 1000 nM. Regarding `COc1nn(C2CCN(C(C)(C)C)CC2)cc1Nc1nc2cccc(OC)c2c2cn[nH]c12` [Example 225, N-(1-(1-(tert-butyl)piperidin-4-yl)-3-methoxy-1H-pyrazol-4-yl)-9-methoxy-3H-pyrazolo[3,4-c]quinolin-4-amine], the half-inhibitory concentration (IC50) lay in the range of 10 to 100 nM. Turning to `COc1ccc2nc(Nc3cccc(C(=O)N4CCOCC4)c3)c3n[nH]cc3c2c1` [Example 7, (3-((8-methoxy-2H-pyrazolo[3,4-c]quinolin-4-yl)amino)phenyl)(morpholino)methanone], the IC50 was in the range of 100 to 1000 nM.

Take `Cc1cccc2nc(Nc3ccc(N4CCOCC4)cc3)c3[nH]ncc3c12` [Example 89, 9-methyl-N-(4-morpholinophenyl)-3H-pyrazolo[3,4-c]quinolin-4-amine]: the 50% inhibitory concentration (IC50) fell in the range of 100 to 1000 nM. Take `COc1ccc2nc(Nc3cnn(C)n3)c3n[nH]cc3c2c1` [Example 122, 8-methoxy-N-(2-methyl-2H-1,2,3-triazol-4-yl)-2H-pyrazolo[3,4-c]quinolin-4-amine]: the IC50 was 100 to 1000 nM.

On to `COCCn1ncc(Nc2nc3cccc(OC)c3c3cn[nH]c23)c1C(F)(F)F` [Example 268, 9-methoxy-N-(1-(2-methoxyethyl)-5-(trifluoromethyl)-1H-pyrazol-4-yl)-3H-pyrazolo[3,4-c]quinolin-4-amine], for which the IC50 was in the range of 100 to 1000 nM. Under `COc1cccc2nc(Nc3cn(C(C)C)nc3C)c3[nH]ncc3c12` [Example 220, N-(1-isopropyl-3-methyl-1H-pyrazol-4-yl)-9-methoxy-3H-pyrazolo[3,4-c]quinolin-4-amine] stands less than 10 nM; under `COc1cccc2nc(Nc3ccc(CN4CCOCC4)cc3)c3[nH]ncc3c12` [Example 15, 9-methoxy-N-(4-(morpholinomethyl)phenyl)-3H-pyrazolo[3,4-c]quinolin-4-amine], 10 to 100 nM. For the compound `COc1cccc2nc(Nc3ccc(C(=O)N4CCN(C)CC4)cc3)c3[nH]ncc3c12` [Example 69, (4-((9-methoxy-3H-pyrazolo[3,4-c]quinolin-4-yl)amino)phenyl)(4-methylpiperazin-1-yl)methanone], the IC50 is 10 to 100 nM. Consider `COc1ccc2nc(Nc3cnn(-c4ccccn4)c3)c3n[nH]cc3c2c1` [Example 319, 8-methoxy-N-(1-(pyridin-2-yl)-1H-pyrazol-4-yl)-2H-pyrazolo[3,4-c]quinolin-4-amine], for which the IC50 is 10 to 100 nM. Then `Cn1cccc(Nc2nc3ccc(S(C)(=O)=O)cc3c3cn[nH]c23)c1=O` [Example 202, 1-methyl-3-((8-(methylsulfonyl)-3H-pyrazolo[3,4-c]quinolin-4-yl)amino)pyridin-2(1H)-one], with 100 to 1000 nM; and `COc1ccc2nc(Nc3ccc(N4CCN(C(C)=O)CC4)nc3)c3n[nH]cc3c2c1` [Example 91, 1-(4-(5-((8-methoxy-2H-pyrazolo[3,4-c]quinolin-4-yl)amino)pyridin-2-yl)piperazin-1-yl)ethan-1-one], with 100 to 1000 nM; and `COc1cccc2nc(Nc3cnn(C(C)(C)C)c3)c3[nH]ncc3c12` [Example 181, N-(1-(tert-butyl)-1H-pyrazol-4-yl)-9-methoxy-3H-pyrazolo[3,4-c]quinolin-4-amine], with less than 10 nM. As to `Cc1nn(CCF)cc1Nc1nc2ccc(S(C)(=O)=O)cc2c2cn[nH]c12` [Example 269, N-(1-(2-fluoroethyl)-3-methyl-1H-pyrazol-4-yl)-8-(methylsulfonyl)-3H-pyrazolo[3,4-c]quinolin-4-amine], the IC50 is less than 10 nM. Then `COc1ccc2nc(Nc3cnn(C)c3C)c3n[nH]cc3c2c1` [Example 104, N-(1,5-dimethyl-1H-pyrazol-4-yl)-8-methoxy-2H-pyrazolo[3,4-c]quinolin-4-amine], with 100 to 1000 nM; and `CS(=O)(=O)c1cccc2nc(Nc3ccc(NCCO)cc3)c3[nH]ncc3c12` [Example 106, 2-((4-((9-(methylsulfonyl)-3H-pyrazolo[3,4-c]quinolin-4-yl)amino)phenyl)amino)ethan-1-ol], with 100 to 1000 nM; and `COc1cccc2nc(Nc3cnn(C(C)C)c3C)c3[nH]ncc3c12` [Example 219, N-(1-isopropyl-5-methyl-1H-pyrazol-4-yl)-9-methoxy-3H-pyrazolo[3,4-c]quinolin-4-amine], with less than 10 nM. Then `COCCn1ncc(Nc2nc3ccc(S(C)(=O)=O)cc3c3cn[nH]c23)c1C(F)(F)F` [Example 272, N-(1-(2-methoxyethyl)-5-(trifluoromethyl)-1H-pyrazol-4-yl)-8-(methylsulfonyl)-3H-pyrazolo[3,4-c]quinolin-4-amine], with 10 to 100 nM; and `COc1cccc2nc(Nc3cnn(C4CCNCC4)c3Cl)c3[nH]ncc3c12` [Example 254, N-(5-chloro-1-(piperidin-4-yl)-1H-pyrazol-4-yl)-9-methoxy-3H-pyrazolo[3,4-c]quinolin-4-amine], with less than 10 nM; and `COc1cccc2nc(Nc3ccc(C(=O)N4CCOCC4)cc3)c3[nH]ncc3c12` [Example 14, (4-((9-methoxy-3H-pyrazolo[3,4-c]quinolin-4-yl)amino)phenyl)(morpholino)methanone], with 10 to 100 nM. Under `CS(=O)(=O)c1ccc2nc(Nc3cc(S(C)(=O)=O)sc3Cl)c3[nH]ncc3c2c1` [Example 230, N-(2-chloro-5-(methylsulfonyl)thiophen-3-yl)-8-(methylsulfonyl)-3H-pyrazolo[3,4-c]quinolin-4-amine] stands 10 to 100 nM.

Source of the values: patent publication US10752624B2, “Kinase inhibitors” (Origenis GmbH, priority 2012, dated 2020).
